# Values joined by “and” are separate entries in the source; they are usually repeats but may differ in a detail not shown here. Identical values can stand only once.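 48-hour exposure; five concentrations; linearly interpolated endpoints. Abbreviation: GI50, concentration required for 50% inhibition of growth. Definition used: TGI = concentration required for complete inhibition of growth.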
# Experiments:
# Experiment in all cases: DTP human tumour cell line panel, 48 h
# HCC-2998 colon = test system: HCC-2998 colon
# EKVX NSCLC = test system: EKVX NSCLC
# U251 CNS = test system: U251 CNS
# SF-539 CNS = test system: SF-539 CNS
# COLO 205 colon = test system: COLO 205 colon
# UACC-257 melanoma = test system: UACC-257 melanoma
# KM12 colon = test system: KM12 colon
# RXF 393 renal = test system: RXF 393 renal
# OVCAR-3 ovarian = test system: OVCAR-3 ovarian
SMILES,GI50 (HCC-2998 colon),TGI (HCC-2998 colon) [µM],GI50 (EKVX NSCLC),TGI (EKVX NSCLC),GI50 (U251 CNS),TGI (U251 CNS),GI50 (SF-539 CNS) [µM],TGI (SF-539 CNS) [µM],GI50 (COLO 205 colon),GI50 (UACC-257 melanoma),TGI (UACC-257 melanoma),GI50 (KM12 colon),TGI (KM12 colon),GI50 (RXF 393 renal),TGI (RXF 393 renal),GI50 (OVCAR-3 ovarian),TGI (OVCAR-3 ovarian),TGI (COLO 205 colon)
CN(C)Cc1c[nH]c2c(NCCN)c3c(c(NCCN)c12)C(=O)c1ccccc1C3=O,2.45 µM,8.37,2.9 µM,9.36 µM,0.394 µM,1.87 µM,2.83,7.47,7.36 µM,6.18 µM,> 23.8 µM,1.59 µM,7.11 µM,6.32 µM,18.1 µM,1.74 µM,6.43 µM,–
O=S(=O)(CCOCc1ccc(-c2ccc3ncnc(Nc4ccc(OCc5cccc(F)c5)c(Cl)c4)c3c2)o1)c1ccccc1,> 25 µM,> 25,0.754 µM,> 25 µM,> 25 µM,> 25 µM,> 25,> 25,> 25 µM,> 25 µM,> 25 µM,> 25 µM,> 25 µM,> 25 µM,> 25 µM,> 25 µM,> 25 µM,> 25 µM
NC(=O)c1cccc(Nc2nccc(Nc3cccc(F)c3)n2)c1,18.5 µM,> 25,12.3 µM,> 25 µM,14.3 µM,> 25 µM,11.3,> 25,6.73 µM,12.2 µM,> 25 µM,7.27 µM,> 25 µM,3.72 µM,14.6 µM,10 µM,> 25 µM,> 17.9 µM
CC1(C)N=C(N)N=C(N)N1c1ccc(OCC(=O)Nc2ccccc2)c(Cl)c1,4.99 µM,> 100,35 µM,> 100 µM,0.674 µM,> 100 µM,2.1,> 100,18.3 µM,> 25.4 µM,> 100 µM,0.842 µM,> 100 µM,> 87.1 µM,> 100 µM,8.51 µM,> 100 µM,> 100 µM
c1ccc2nc3c(cc4ccccn43)nc2c1,61.8 µM,> 100,18.9 µM,> 100 µM,39.9 µM,> 100 µM,36.7,> 100,64 µM,> 100 µM,> 100 µM,26.6 µM,> 100 µM,30.1 µM,> 100 µM,> 100 µM,> 100 µM,> 100 µM
O=S1(=O)NCCCN1CCNc1nccc(-c2c(-c3cccc(O)c3)nc3sccn23)n1,31.3 µM,> 92,61.3 µM,> 100 µM,21.6 µM,> 100 µM,33.5,> 100,0.581 µM,2.99 µM,> 100 µM,33.3 µM,> 90.4 µM,5.17 µM,38.4 µM,19.4 µM,> 100 µM,27.4 µM
CCC1=C[C@@H]2CN(C1)Cc1c([nH]c3ccccc13)[C@@](C(=O)OC)(c1cc3c(cc1OC)N(C)[C@H]1[C@@](O)(C(=O)OC)[C@H](OC(C)=O)[C@]4(CC)[C@@H]5C[C@@H]5CN5CC[C@]31[C@@H]54)C2,< 0.005 µM and 0.0211 µM,–,–,–,< 0.005 µM,0.671 µM,0.0342,2.91,< 0.005 µM,–,7.53 µM and 15.6 µM,< 0.005 µM,6.54 µM and 11.1 µM,0.0105 µM,11.1 µM,–,–,0.00546 µM and 0.0282 µM
OC(c1ccc(Br)cc1)(c1cccs1)C1CC1 (centres undefined),–,55.6,–,> 100 µM,–,35.4 µM,–,45.9,–,–,71.3 µM,–,35.3 µM,–,39.1 µM,–,35.9 µM,36.6 µM
CCCCCCCCCCN=C(c1ccc(N(C)C)cc1)c1ccc(N(C)C)cc1,5.07 µM,> 88.6,1.04 µM,> 100 µM,0.579 µM,33.2 µM,0.832,5.47,0.933 µM,16.5 µM,66.2 µM,0.414 µM,> 75.8 µM,1.66 µM,9.87 µM,0.428 µM,> 24.9 µM,15.7 µM
CCN(CC)CCNC(=O)c1cn2ncnc(Oc3ccc(NC(=O)Nc4ccc(Cl)c(C(F)(F)F)c4)c(F)c3)c2c1C,2.17 µM,3.77,1.92 µM,3.34 µM,1.59 µM,3.07 µM,1.12,2.43,1.44 µM,1.61 µM,3.18 µM,1.57 µM,3.08 µM,1.8 µM,3.35 µM,1.77 µM,3.21 µM,3.16 µM
COc1ccc(/C=C2/CCc3cc4ccc(OC)cc4[o+]c32)c(O)c1,15.3 µM,32.6,12.5 µM,26.8 µM,2.3 µM,5.57 µM,15.1,31.8,2.59 µM,15.8 µM,32 µM,2.65 µM,7.44 µM,7.08 µM,24.6 µM,2.48 µM,6.09 µM,10.7 µM
CC1(C)CC[C@H](C2=CC(=O)c3c(O)ccc(O)c3C2=O)O1,–,–,4.7 µM and 1.48 µM and 1.35 µM,11.8 µM and 3.03 µM and 3.95 µM,3.71 µM and 2.51 µM and 1.5 µM,6.5 µM and 7.21 µM and 3.19 µM,–,–,0.632 µM and 0.144 µM and 0.139 µM,1.99 µM and 1.38 µM and 0.391 µM,4.77 µM and 2.67 µM and 1.08 µM,6.25 µM and 1.69 µM and 1.83 µM,14.2 µM and 3.2 µM and 3.45 µM,1.39 µM and 2.02 µM and 0.271 µM,2.93 µM and 3.82 µM and 0.604 µM,2.23 µM and 1.64 µM and 0.669 µM,4.87 µM and 3.02 µM and 1.61 µM,1.66 µM and 0.388 µM and 0.227 µM
Cn1cc(-c2csc(-c3cn(C)c4ccccc34)n2)c2cnccc21,1.26 µM,2.6,1.56 µM,3.39 µM,1.86 µM,3.45 µM,1.75,3.2,–,1.94 µM,3.5 µM,1 µM,2.48 µM,1.7 µM,3.28 µM,2.16 µM,4.13 µM,–
CCSc1nc(N)c2cn[nH]c2n1,–,–,51.4 µM,> 100 µM,43.1 µM,> 100 µM,43.6,> 100,23.5 µM,71.1 µM,> 100 µM,22 µM,59.6 µM,13.3 µM,35.5 µM,22.1 µM,72.1 µM,53.9 µM
OC(CN1CC1)C(O)CN1CC1 (centres undefined),–,–,> 50 µg/mL,> 50 µg/mL,> 50 µg/mL,> 50 µg/mL,–,–,–,> 50 µg/mL,> 50 µg/mL,> 50 µg/mL,> 50 µg/mL,> 50 µg/mL,> 50 µg/mL,> 50 µg/mL,> 50 µg/mL,–
CC(=O)N[C@H](C(=O)N[C@@H](CCCNC(=N)N)C(=O)N[C@@H](CCCCN)C(=O)N[C@@H](CCCNC(=N)N)C(=O)N[C@]1(C)CCCCCC/C=C\CCC[C@@](C)(C(=O)N[C@@H](CCCNC(=N)N)C(=O)N[C@@H](CCC(=O)O)C(=O)N[C@@H](CC(C)C)C(=O)N[C@H](C(=O)N[C@@H](CCC(=O)O)C(N)=O)C(C)C)NC(=O)[C@H](CCC(N)=O)NC(=O)[C@H](CC(C)C)NC(=O)[C@H](CC(C)C)NC(=O)[C@H](CCCNC(=N)N)NC(=O)[C@H](CCCNC(=N)N)NC(=O)[C@H](CC(C)C)NC1=O)C(C)C,4.65 µM,46.6,1.75 µM,23.2 µM,3.79 µM,36.6 µM,1.97,15.8,1.3 µM,–,–,1.3 µM,3.77 µM,1.34 µM,4.77 µM,6.16 µM,19.2 µM,4.54 µM
CCC(=C(c1ccc(OCCCN(C)C)cc1)c1ccc(OCCCN(C)C)cc1)c1ccc(Cl)cc1,0.51 µM,1.54,2.43 µM,4.9 µM,0.419 µM,1.1 µM,0.301,0.604,0.399 µM,0.883 µM,2.24 µM,1.26 µM,3.43 µM,0.977 µM,3.4 µM,0.429 µM,1.08 µM,1.04 µM
COc1ccccc1/C=C/C(=O)/C=C/c1ccccc1O,1.29 µM,2.64,1.75 µM,5.63 µM,0.326 µM,1.28 µM,1.46,2.78,1.11 µM,1.71 µM,3.63 µM,0.369 µM,1.5 µM,–,0.763 µM,0.314 µM,1 µM,2.49 µM
Cn1c([N+](=O)[O-])cnc1/C=C1\Oc2cc(Cl)ccc2C1=O,2.04 µM,4.81,–,–,1.53 µM,5.07 µM,1.71,4.81,0.742 µM,0.997 µM,4.99 µM,0.501 µM,6.78 µM,0.762 µM,2.37 µM,0.441 µM,2.31 µM,3.59 µM
O=c1ncccn1C1C=C(CO)C(O)C1O (centres undefined),–,> 50,–,> 50 µM,–,> 50 µM,–,> 50,–,–,> 50 µM,–,> 50 µM,–,–,–,> 50 µM,> 50 µM
Cn1c2ccccc2c2c(=O)c3ccccc3[nH]c21,–,–,44.1 µM,> 100 µM,35.8 µM,> 100 µM,34,> 100,55.8 µM,–,–,22.1 µM,> 100 µM,54 µM,> 100 µM,> 100 µM,> 100 µM,> 100 µM
CCOC1Oc2ccccc2-c2oc(=O)c(Sc3ccc(C)cc3)cc21 (centres undefined),52.2 µM,> 100,42.8 µM,> 100 µM,25.1 µM,> 100 µM,62.3,> 100,25.2 µM,11.8 µM,45.8 µM,34.4 µM,> 100 µM,–,–,18.1 µM,> 100 µM,> 100 µM
O=C1c2cccnc2-c2nc(-c3ccncc3)cc3c2c1nc1ccccc13,–,–,24.3 µM,> 100 µM,12 µM,64.5 µM,2.95,13.6,30 µM,> 100 µM,> 100 µM,–,–,15.6 µM,66.7 µM,7.51 µM,20 µM,72.6 µM
C[C@H]1[C@H](C)CC[C@]2(C(=O)NCCNCCN)CC[C@]3(C)C(=CC[C@@H]4[C@@]5(C)CCC(=O)C(C)(C)[C@@H]5CC[C@]43C)[C@H]12,1.66 µM,3.07,1.58 µM,3.02 µM,1.66 µM,3.17 µM,1.68,3.05,–,1.84 µM,3.89 µM,1.85 µM,3.42 µM,–,–,1.8 µM,3.3 µM,–
CCCCCCCCCCCCCCCCCCNC(=O)[C@H]1CSC(c2cccs2)N1 (some centres undefined),1.06 µM,2.31,–,–,0.929 µM,1.74 µM,1.71,7.85,> 50 µM,1.25 µM,3.12 µM,0.977 µM,1.98 µM,0.973 µM,1.72 µM,1.48 µM,3.97 µM,> 50 µM
O=C(O)CCC(NC(=S)S)C(=O)O.[Na+].[Zn+2] (centres undefined),> 50 µM,> 50,–,–,> 50 µM,> 50 µM,> 50,> 50,> 50 µM,> 50 µM,> 50 µM,> 50 µM,> 50 µM,> 50 µM,> 50 µM,> 50 µM,> 50 µM,> 50 µM
c1ccc(Cn2cnc3ccc(-c4nc(-c5ccc6c(c5)ncn6C5CCCCC5)cn5ccnc45)cc32)cc1,1.9 µM,3.41,–,–,–,–,–,–,–,–,–,2.08 µM,4.93 µM,–,–,2.27 µM,5.8 µM,–
Cc1cc(Nc2nc(SCc3ccc(C(=O)Nc4ccc(F)cc4N)cc3)nn3cccc23)n[nH]1,0.677 µM,11.5,0.919 µM,55.9 µM,0.343 µM,> 100 µM,0.282,17.4,–,3.69 µM,32.4 µM,0.284 µM,10.3 µM,0.301 µM,13 µM,0.202 µM,49.1 µM,–
Cc1ccc2c(c1)Sc1ccc(N=NN(C)C)cc1N2C,–,> 100,–,> 100 µM,–,> 100 µM,–,–,–,–,–,–,> 100 µM,–,> 100 µM,–,> 100 µM,> 100 µM
